# Measured values: publication PMC11642016 (International Journal of Molecular Sciences, 2024)
# Where two headings read alike, the source gives them in different places.
# How the values were obtained:
# [1] = tested on: PANC-1 cells; test: CellTiter-Glo luminescent cell viability assay, PANC-1; conditions: 72 h, mean ± SD, n = 2; for Cell Viability (% of Control) 2.8 µM / Cell Viability (% of Control) 8.3 µM / Cell Viability (% of Control) 25 µM: PANC-1; for viability at 2.8 µM / viability at 8.3 µM / viability at 25 µM: Homo sapiens, PANC-1, 72 h; for viability at 2.8 µM: read-out: Cell Viability (% of Control) 2.8 µM, PANC-1; for viability at 8.3 µM: read-out: Cell Viability (% of Control) 8.3 µM, PANC-1; for viability at 25 µM: read-out: Cell Viability (% of Control) 25 µM, PANC-1
# Protocol: Primary fibroblast cultures were prepared from human skin biopsies and maintained in DMEM supplemented with 10% FBS, 1% penicillin-streptomycin, and 1% MEM Non-Essential Amino Acids Solution (Thermo Fisher Scientific). […] All cell lines were cultured in a humidified atmosphere at 37 °C and 5% CO2, passaged twice a week, and the experiments were performed on cells between passage 5 and 15. The cell lines were routinely screened for the absence of mycoplasma infection (DAPI staining).
# The effects of the synthesized compounds on cell viability were measured using the CellTiter-Glo® luminescent cell viability assay (Promega, Madison, WI, USA), according to the manufacturer’s instructions. Briefly, cells were seeded onto a flat-bottomed, white 96-well plate (BRANDplates, cat. no.: 781965)), with the following densities: PANC-1: 750 cells/well, Fadu: 2000 cells/well, primary fibroblasts: 2000 cells/well, HEK293T WT: 1000 cells/well, HEK293T CLPP^−/−: 2500 cells/well. After seeding, cells were incubated for a further 48 h before treatment. Cells were treated with the compounds for 72 h. Three concentrations (25.0 µM; 8.3 µM; 2.8 µM) were applied during the initial cell viability screening, while for the determination of dose–response curves, 1.5-fold serially diluted compound concentrations were applied (range: 26 µM–0.7 µM). After treatment, the luminescence signal was recorded using a microplate reader (BioTek Synergy 2 Multi-Mode Reader, BioTek, Winooski, VT, USA).
# Data analysis was performed using GraphPad Prism 9.5.0 software (GraphPad Software, San Diego, CA, USA). […] The dose–response curves were generated by four-parameter nonlinear regression, and the IC50 values were determined as the means ± SEM of the best-fit values of 3 independent measurements. The R^2 values were consistently above 0.93, indicating a strong fit of the model to the experimental data (Supplementary S.89). […] Dunnett’s post hoc test was applied to adjust for multiple comparisons, minimizing the likelihood of false positive results. Assumptions for ANOVA, including normality (assessed via QQ plots) and homogeneity of variance (tested using the Brown–Forsythe test), were verified. The following significance levels were applied: * p < 0.05, ** p < 0.01, *** p < 0.001, **** p < 0.0001. […] The tumor selectivity of the compounds was quantitatively characterized by the selectivity index (SI). This parameter was calculated as the ratio of the average best-fit IC50 value for primary fibroblasts and the best-fit IC50 value for the corresponding tumor cells (PANC-1 or Fadu).
# [2] = tested on: Fadu cells; test: CellTiter-Glo luminescent cell viability assay, Fadu; conditions: 72 h, mean ± SD, n = 2; for Cell Viability (% of Control) 2.8 µM / Cell Viability (% of Control) 8.3 µM / Cell Viability (% of Control) 25 µM: Fadu; for viability at 2.8 µM / viability at 8.3 µM / viability at 25 µM: Homo sapiens, FaDu; for viability at 2.8 µM: read-out: Cell Viability (% of Control) 2.8 µM, Fadu; for viability at 8.3 µM: read-out: Cell Viability (% of Control) 8.3 µM, Fadu; for viability at 25 µM: read-out: Cell Viability (% of Control) 25 µM, Fadu
compound,measurement,setting,value
O=C1C2=C(CCN(Cc3cccc(-n4cc(-[c-]5cccc5)nn4)c3)C2)N2CCN=C2N1Cc1ccc(C#CCO)cc1.[Fe+2].c1cc[cH-]c1 [3c],Cell Viability (% of Control) 2.8 µM,[1]; first-set screening,100 ± 3 % of Control
same,Cell Viability (% of Control) 8.3 µM,[1]; first-set screening,98 ± 1 % of Control
same,Cell Viability (% of Control) 25 µM,[1]; first-set screening,98 ± 1 % of Control
same,Cell Viability (% of Control) 2.8 µM,[2]; first-set screening,103 ± 9 % of Control
same,Cell Viability (% of Control) 8.3 µM,[2]; first-set screening,99 ± 2 % of Control
same,Cell Viability (% of Control) 25 µM,[2]; first-set screening,85 ± 5 % of Control
NCC#Cc1cccc(CN2C(=O)C3=C(CCN(Cc4ccc(-n5cc(-c6cccc(F)c6)nn5)cc4)C3)N3CCN=C23)c1 [36a],viability at 2.8 µM,[1]; second-set screening,116 ± 8%
same,viability at 8.3 µM,[1]; second-set screening,0%
same,viability at 25 µM,[1]; second-set screening,0%
same,viability at 2.8 µM,[2]; second-set screening,105 ± 20%
same,viability at 8.3 µM,[2]; second-set screening,6 ± 5%
same,viability at 25 µM,[2]; second-set screening,0%
CN(C)CC#Cc1cccc(CN2C(=O)C3=C(CCN(Cc4ccc(-n5cc(-c6ccccc6)nn5)cc4)C3)N3CCN=C23)c1 [39b],viability at 2.8 µM,[1]; second-set screening,107 ± 3%
same,viability at 8.3 µM,[1]; second-set screening,25 ± 20%
same,viability at 25 µM,[1]; second-set screening,2 ± 3%
same,viability at 2.8 µM,[2]; second-set screening,96 ± 4%
same,viability at 8.3 µM,[2]; second-set screening,15 ± 8%
same,viability at 25 µM,[2]; second-set screening,1 ± 1%
NCC#Cc1cccc(CN2C(=O)C3=C(CCN(Cc4ccc(C(=O)Nc5ccccc5)cc4)C3)N3CCN=C23)c1 [33b],viability at 2.8 µM,[1]; second-set screening,102 ± 9%
same,viability at 8.3 µM,[1]; second-set screening,109 ± 5%
same,viability at 25 µM,[1]; second-set screening,71 ± 32%
same,viability at 2.8 µM,[2]; second-set screening,120 ± 9%
same,viability at 8.3 µM,[2]; second-set screening,115 ± 6%
same,viability at 25 µM,[2]; second-set screening,80 ± 11%
O=C1C2=C(CCN(Cc3cccc(-n4cc(-c5ccccc5)nn4)c3)C2)N2CCN=C2N1Cc1cccc(C#CCO)c1 [4d],viability at 2.8 µM,[1]; first-set screening,74 ± 3%
same,viability at 8.3 µM,[1]; first-set screening,60 ± 2%
same,viability at 25 µM,[1]; first-set screening,53 ± 8%
same,viability at 2.8 µM,[2]; first-set screening,37 ± 1%
same,viability at 8.3 µM,[2]; first-set screening,27 ± 3%
same,viability at 25 µM,[2]; first-set screening,23 ± 3%
NCC#Cc1cccc(CN2C(=O)C3=C(CCN(Cc4ccc(NC(=O)c5ccccc5)cc4)C3)N3CCN=C23)c1 [23b],viability at 2.8 µM,[1]; second-set screening,113 ± 15%
same,viability at 8.3 µM,[1]; second-set screening,106 ± 5%
same,viability at 25 µM,[1]; second-set screening,47 ± 39%
same,viability at 2.8 µM,[2]; second-set screening,117 ± 11%
same,viability at 8.3 µM,[2]; second-set screening,108 ± 7%
same,viability at 25 µM,[2]; second-set screening,77 ± 6%
O=C1C2=C(CCN(Cc3ccc(-n4cc(-c5ccccc5)nn4)cc3)C2)N2CCN=C2N1Cc1cccc(C#CCO)c1 [2d],viability at 2.8 µM,[1]; first-set screening,100 ± 8%
same,viability at 8.3 µM,[1]; first-set screening,87 ± 1%
same,viability at 25 µM,[1]; first-set screening,81%
same,viability at 2.8 µM,[2]; first-set screening,99 ± 7%
same,viability at 8.3 µM,[2]; first-set screening,90 ± 10%
same,viability at 25 µM,[2]; first-set screening,78 ± 6%
C=CC(=O)Nc1cccc(-c2cn(-c3ccc(CN4CCC5=C(C4)C(=O)N(Cc4ccc(C#CCN)cc4)C4=NCCN45)cc3)nn2)c1 [1e],viability at 2.8 µM,[1]; first-set screening,101 ± 7%
same,viability at 8.3 µM,[1]; first-set screening,91 ± 1%
same,viability at 25 µM,[1]; first-set screening,102%
same,viability at 2.8 µM,[2]; first-set screening,96 ± 6%
same,viability at 8.3 µM,[2]; first-set screening,59 ± 4%
same,viability at 25 µM,[2]; first-set screening,69 ± 2%
NCC#Cc1cccc(CN2C(=O)C3=C(CCN(Cc4ccc(NC(=O)[c-]5cccc5)cc4)C3)N3CCN=C23)c1.[Fe+2].c1cc[cH-]c1 [23a],Cell Viability (% of Control) 2.8 µM,[1]; second-set screening,98 ± 7 % of Control
same,Cell Viability (% of Control) 8.3 µM,[1]; second-set screening,104 ± 10 % of Control
same,Cell Viability (% of Control) 25 µM,[1]; second-set screening,52 ± 55 % of Control
same,Cell Viability (% of Control) 2.8 µM,[2]; second-set screening,109 ± 10 % of Control
same,Cell Viability (% of Control) 8.3 µM,[2]; second-set screening,107 ± 7 % of Control
same,Cell Viability (% of Control) 25 µM,[2]; second-set screening,61 ± 20 % of Control
CN(C)CC#Cc1cccc(CN2C(=O)C3=C(CCN(Cc4ccc(-n5cc(-[c-]6cccc6)nn5)cc4)C3)N3CCN=C23)c1.[Fe+2].c1cc[cH-]c1 [39a],Cell Viability (% of Control) 2.8 µM,[1]; second-set screening,112 ± 7 % of Control
same,Cell Viability (% of Control) 8.3 µM,[1]; second-set screening,62 ± 72 % of Control
same,Cell Viability (% of Control) 25 µM,[1]; second-set screening,35 ± 41 % of Control
same,Cell Viability (% of Control) 2.8 µM,[2]; second-set screening,99 ± 9 % of Control
same,Cell Viability (% of Control) 8.3 µM,[2]; second-set screening,45 ± 52 % of Control
same,Cell Viability (% of Control) 25 µM,[2]; second-set screening,13 ± 15 % of Control
O=C1C2=C(CCN(Cc3ccc(-n4cc(-[c-]5cccc5)nn4)cc3)C2)N2CCN=C2N1Cc1cccc(C#CCN2CCOCC2)c1.[Fe+2].c1cc[cH-]c1 [42a],Cell Viability (% of Control) 2.8 µM,[1]; second-set screening,132 ± 4 % of Control
same,Cell Viability (% of Control) 8.3 µM,[1]; second-set screening,75 ± 31 % of Control
same,Cell Viability (% of Control) 25 µM,[1]; second-set screening,58 ± 36 % of Control
same,Cell Viability (% of Control) 2.8 µM,[2]; second-set screening,121 ± 3 % of Control
same,Cell Viability (% of Control) 8.3 µM,[2]; second-set screening,112 ± 11 % of Control
same,Cell Viability (% of Control) 25 µM,[2]; second-set screening,55 ± 12 % of Control
